{
  "source": "ChEMBL document CHEMBL1155168",
  "about": "“Bound to shock: protection from lethal endotoxemic shock by a novel, nontoxic, alkylpolyamine lipopolysaccharide sequestrant” (Antimicrob Agents Chemother, 2007)",
  "key": {"HEK-Blue [1]": {"tested_on": "HEK-Blue", "test": "Inhibition of phorbol esters-stimulated NF-kappaB induction in HEK-Blue cells assessed as expression of secreted alkaline phosphatase by seAP assay", "assay_type": "functional, cell-based", "conditions": "Homo sapiens"}, "HEK-Blue [2]": {"tested_on": "HEK-Blue", "test": "Inhibition of ionomycin-stimulated NF-kappaB induction in HEK-Blue cells assessed as expression of secreted alkaline phosphatase by seAP assay", "assay_type": "functional, cell-based", "conditions": "Homo sapiens"}, "Escherichia coli [3]": {"tested_on": "Escherichia coli", "test": "Displacement of BODIPY-cadaverine from Escherichia coli O111:B4 lipopolysaccharide"}, "HEK-Blue [4]": {"tested_on": "HEK-Blue", "test": "Inhibition of IL-1-beta-stimulated NF-kappaB induction in HEK-Blue cells assessed as expression of secreted alkaline phosphatase by seAP assay", "assay_type": "functional, cell-based", "conditions": "Homo sapiens"}, "Escherichia coli [5]": {"tested_on": "Escherichia coli", "test": "Ex vivo inhibition of Escherichia coli lipopolysaccharide-stimulated T180/Y182 dual phosphorylation of p38 MAPK in human whole blood by flow cytometry", "assay_type": "tissue-based"}, "Blood": {"tested_on": "Blood", "test": "Ex vivo inhibition of TNF-alpha-stimulated T180/Y182 dual phosphorylation of p38 MAPK in human whole blood by flow cytometry", "assay_type": "functional, tissue-based"}, "HEK-Blue [6]": {"tested_on": "HEK-Blue", "test": "Inhibition of TNF-alpha-stimulated NF-kappaB induction in HEK-Blue cells assessed as expression of secreted alkaline phosphatase by seAP assay", "assay_type": "functional, cell-based", "conditions": "Homo sapiens"}, "Mus musculus [7]": {"tested_on": "Mus musculus", "test": "Increase in survivality of sc dosed D-galactosamine-primed CF1 mouse model of LPS-induced lethal septic shock administered 1 hr prior to LPS challenge", "assay_type": "functional, organism-based"}, "Mus musculus [8]": {"tested_on": "Mus musculus", "test": "Increase in survivality of ip dosed D-galactosamine-primed mouse model of LPS-induced lethal septic shock administered as precomplex with LPS", "assay_type": "functional, organism-based"}, "[9]": {"test": "Inhibition of Escherichia coli O111:B4 lipopolysaccharide-stimulated NF-kappaB induction in HEK-Blue cells assessed as expression of secreted alkaline phosphatase by seAP assay", "assay_type": "cell-based"}, "[10]": {"test": "Inhibition of Salmonella enterica serovar Abortus equi lipopolysaccharide-stimulated NF-kappaB induction in HEK-Blue cells assessed as expression of secreted alkaline phosphatase by seAP assay", "assay_type": "cell-based"}, "Mus musculus [11]": {"tested_on": "Mus musculus", "test": "Inhibition of LPS-induced cytokines levels in D-galactosamine-primed mouse model of at 4 mg/kg, sc", "assay_type": "functional, organism-based", "set-up": "dose 4 mg/kg"}, "[12]": {"test": "Inhibition of Pseudomonas aeruginosa lipopolysaccharide-stimulated NF-kappaB induction in HEK-Blue cells assessed as expression of secreted alkaline phosphatase by seAP assay", "assay_type": "cell-based"}, "J774.A1": {"tested_on": "J774.A1", "test": "Inhibition of LPS-stimulated nitric oxide production in mouse J774A.1 cells after 16 hrs", "assay_type": "functional, cell-based"}, "[13]": {"test": "Inhibition of LPS-stimulated NF-kappaB induction in HEK-Blue cells assessed as expression of secreted alkaline phosphatase by seAP assay", "assay_type": "cell-based"}, "[14]": {"test": "Inhibition of Vibrio cholerae lipopolysaccharide-stimulated NF-kappaB induction in HEK-Blue cells assessed as expression of secreted alkaline phosphatase by seAP assay", "assay_type": "cell-based"}, "[15]": {"test": "Ex vivo inhibition of Escherichia coli lipopolysaccharide-stimulated TNFalpha production in human whole blood by multiplexed flow cytometric bead array system", "assay_type": "tissue-based"}, "[16]": {"test": "Inhibition of Escherichia coli 055:B5 lipopolysaccharide-stimulated NF-kappaB induction in HEK-Blue cells assessed as expression of secreted alkaline phosphatase by seAP assay", "assay_type": "cell-based"}, "Mus musculus [17]": {"tested_on": "Mus musculus", "test": "Toxicity in mouse at 40 mg/kg/day, sc after 5 days", "assay_type": "organism-based", "set-up": "route subcutaneous", "conditions": "in vivo, 120 h"}, "Mus musculus [18]": {"tested_on": "Mus musculus", "test": "Increase in survivality of sc dosed D-galactosamine-primed mouse model of TNF-alpha-induced lethal septic shock", "assay_type": "functional, organism-based"}, "[19]": {"test": "Ex vivo inhibition of Escherichia coli lipopolysaccharide-stimulated IL6 production in human whole blood by multiplexed flow cytometric bead array system", "assay_type": "tissue-based"}, "Mus musculus [20]": {"tested_on": "Mus musculus", "test": "Toxicity in mouse in mouse assessed as polyamine level in plasma at 40 mg/kg/day, sc for 5 days relative to control", "assay_type": "organism-based", "set-up": "route subcutaneous", "conditions": "in vivo, 120 h"}, "[21]": {"test": "Ex vivo inhibition of Escherichia coli lipopolysaccharide-stimulated IL8 production in human whole blood by multiplexed flow cytometric bead array system", "assay_type": "tissue-based"}},
  "note": "The source made the active and inactive calls. The calls are words filed in the database; no cut-off is given here.",
  "data": [
    {"molecule": "POLYMYXIN B [listing 1 of 2 here]", "values": [
      {"measurement": "Activity", "setting": "HEK-Blue [1]", "value": "inactive"},
      {"measurement": "Activity", "setting": "HEK-Blue [2]", "value": "inactive"},
      {"measurement": "ED50", "setting": "Escherichia coli [3]", "value": 1.31, "unit": "µM"},
      {"measurement": "Activity", "setting": "HEK-Blue [4]", "value": "inactive"},
      {"measurement": "Activity", "setting": "Escherichia coli [5]", "value": "Dose-dependent effect"},
      {"measurement": "Activity", "setting": "Blood", "value": "inactive"},
      {"measurement": "Activity", "setting": "HEK-Blue [6]", "value": "inactive"},
      {"measurement": "Activity", "setting": "Mus musculus [7]", "value": "Dose-dependent effect"},
      {"measurement": "Activity", "setting": "Mus musculus [8]", "value": "Dose-dependent effect"}
    ]},
    {"molecule": "CCCCCCCCCCCCCCCCNCCCNCCCNCCCCNCCCN.O=C(O)C(F)(F)F", "values": [
      {"measurement": "Activity", "setting": "HEK-Blue [1]", "value": "inactive"},
      {"measurement": "IC50", "setting": "[9]; Escherichia coli, HEK-Blue", "value": 0.03, "unit": "µM"},
      {"measurement": "Activity", "setting": "HEK-Blue [2]", "value": "inactive"},
      {"measurement": "IC50", "setting": "[10]; Salmonella enterica, HEK-Blue", "value": 0.082, "unit": "µM"},
      {"measurement": "Activity", "setting": "Mus musculus [11]", "value": "Active"},
      {"measurement": "IC50", "setting": "[12]; Pseudomonas aeruginosa, HEK-Blue", "value": 0.03, "unit": "µM"},
      {"measurement": "IC50", "setting": "J774.A1; Mus musculus, J774.A1, 16 h", "value": 0.021, "unit": "µM"},
      {"measurement": "ED50", "setting": "Escherichia coli [3]", "value": 1.2, "unit": "µM"},
      {"measurement": "Activity", "setting": "HEK-Blue [4]", "value": "inactive"},
      {"measurement": "IC50", "setting": "[13]; HEK-Blue", "value": 0.032, "unit": "µM"},
      {"measurement": "Activity", "setting": "Blood", "value": "inactive"},
      {"measurement": "Activity", "setting": "HEK-Blue [6]", "value": "inactive"},
      {"measurement": "IC50", "setting": "[14]; Vibrio cholerae, HEK-Blue", "value": 0.03, "unit": "µM"},
      {"measurement": "IC50", "setting": "[15]; Escherichia coli, Blood", "value": 3, "unit": "µM"},
      {"measurement": "IC50", "setting": "[16]; Escherichia coli, HEK-Blue", "value": 0.03, "unit": "µM"},
      {"measurement": "Activity", "setting": "Mus musculus [17]", "value": "Non-toxic"},
      {"measurement": "Activity", "setting": "Mus musculus [18]", "value": "inactive"},
      {"measurement": "Activity", "setting": "Mus musculus [7]", "value": "Dose-dependent effect"},
      {"measurement": "IC50", "setting": "[19]; Escherichia coli, Blood", "value": 3, "unit": "µM"},
      {"measurement": "Activity", "setting": "Mus musculus [20]", "value": "Non-toxic"},
      {"measurement": "IC50", "setting": "[21]; Escherichia coli, Blood", "value": 3, "unit": "µM"},
      {"measurement": "Activity", "setting": "Mus musculus [8]", "value": "Dose-dependent effect"}
    ]},
    {"molecule": "POLYMYXIN B [listing 2 of 2 here]", "values": [
      {"measurement": "IC50", "setting": "[9]; hek-blue", "value": 0.03, "unit": "µM"},
      {"measurement": "IC50", "setting": "[10]; hek-blue", "value": 0.562, "unit": "µM"},
      {"measurement": "IC50", "setting": "[12]; hek-blue", "value": 0.03, "unit": "µM"},
      {"measurement": "IC50", "setting": "J774.A1; j774.a1", "value": 0.027, "unit": "µM"},
      {"measurement": "IC50", "setting": "[13]; hek-blue", "value": 0.032, "unit": "µM"},
      {"measurement": "IC50", "setting": "[14]; hek-blue", "value": 0.03, "unit": "µM"},
      {"measurement": "IC50", "setting": "[15]", "value": 11, "unit": "µM"},
      {"measurement": "IC50", "setting": "[16]; hek-blue", "value": 0.03, "unit": "µM"},
      {"measurement": "IC50", "setting": "[19]", "value": 11, "unit": "µM"},
      {"measurement": "IC50", "setting": "[21]", "value": 11, "unit": "µM"}
    ]}
  ]
}
